For one experiment, the target named is T1, human TOR (Homo sapiens, UniProt P42345).
T1 construct: FLAG
Description: mTOR enzyme assay (DELFIA format, purified FLAG-TOR, His6-S6K substrate). In kind it is biochemical. Particulars: 100 μM ATP, 1.25 μM His6-S6K, 2 hours at room temperature; read-out: TOR Kinase Median IC50.

In another experiment the target is PI3 Kinase. The experiment is described as follows: PI3K fluorescence polarization assay. In kind it is biochemical. Particulars: 25 μM ATP, diC8-PI(4,5)P2 substrate, 1 hour at 25° C.; read-out: PI3 Kinase Median IC50. Background: In fluorescence polarisation assays a small probe gives low polarisation when free and higher when bound to something large.

A value given as a limit tells only on which side of the number the result lay.

Description for PI3 Kinase: Nunc 384 well black polypropylene fluorescent plates are used for PI3K assays. Reactions are quenched by the addition of EDTA to a final concentration of 10 mM. Final reaction volumes are 10 μl. […] Reactions are allowed to proceed for one hour at 25° C. After 1 hour, GST-tagged GRP1 (general receptor for phosphoinositides) PH domain fusion protein is added to a final concentration of 100 nM, and BODIPY-TMRI(1,3,4,5)P4 (Echelon) is also added to a final concentration of 5 nM. Final sample volumes are 25 μl with a final DMSO concentration of 0.8%. Assay Plates are read on Perkin-Elmer Envision plate readers with appropriate filters for Tamra [BODIPY-TMRI(1,3,4,5)P4].

Regarding `Oc1cncc(-c2nc(N3CCOCC3)c3ncn(C4CCN(Cc5ccc(F)nc5)CC4)c3n2)c1` [Compound 41, 5-{9-[1-(6-fluoro-pyridin-3-ylmethyl)-piperidin-4-yl]-6-morpholin-4-yl-9H-purin-2-yl}-pyridin-3-ol], the figures for the IC50 on human TOR and at PI3 Kinase were 570 nM and 94 nM, respectively.
With `COc1cncc(-c2nc(N3CCOCC3)c3nc[nH]c3n2)c1` [Compound 42, 2-(5-methoxypyridin-3-yl)-6-morpholin-4-yl-9H-purine], the IC50 is 3000 nM at human TOR and 598 nM at PI3 Kinase.
In the same order, the values of `Oc1cncc(-c2nc(N3CCOCC3)c3nc[nH]c3n2)c1` [Compound 43, 5-(6-morpholin-4-yl-9H-purin-2-yl)pyridin-3-ol] are 620 nM and 11 nM.
The like results for `OCc1cccc(-c2nc(N3CCOCC3)c3ncn(C4CCN(Cc5ccccc5F)CC4)c3n2)c1` [Compound 45, (3-{9-[1-(2-fluorobenzyl)piperidin-4-yl]-6-morpholin-4-yl-9H-purin-2-yl}phenyl)methanol] were, in that order, 160 nM and 42 nM.
The like results for `OCc1cccc(-c2nc(N3CCOCC3)c3ncn(C4CCN(Cc5ccc(F)cc5)CC4)c3n2)c1` [Compound 46, (3-{9-[1-(4-fluorobenzyl)piperidin-4-yl]-6-morpholin-4-yl-9H-purin-2-yl}phenyl)methanol] were, in that order, 1700 nM and 70 nM.
For the compound `CCCCN1CCC(n2cnc3c(N4CCOCC4)nc(-c4cccc(CO)c4)nc32)CC1` [Compound 48], the IC50 came out at 4200 nM at human TOR and 96 nM at PI3 Kinase.
The like results for `OCc1cccc(-c2nc(N3CCOCC3)c3ncn(C4CCN(Cc5ccc(F)cc5F)CC4)c3n2)c1` [Compound 49, (3-{9-[1-(2,4-difluorobenzyl)piperidin-4-yl]-6-morpholin-4-yl-9H-purin-2-yl}phenyl)methanol] were, in that order, 2050 nM and 44 nM.
`OCc1cccc(-c2nc(N3CCOCC3)c3ncn(C4CCN(Cc5cccc(F)c5)CC4)c3n2)c1` [Compound 50, (3-{9-[1-(3-fluorobenzyl)piperidin-4-yl]-6-morpholin-4-yl-9H-purin-2-yl}phenyl)methanol]: the figures for the IC50 on human TOR and on PI3 Kinase were 1400 nM and 94 nM, respectively.
The like results for `OCc1cccc(-c2nc(N3CCOCC3)c3ncn(C4CCN(Cc5ccco5)CC4)c3n2)c1` [Compound 52, (3-{9-[1-(2-furylmethyl)piperidin-4-yl]-6-morpholin-4-yl-9H-purin-2-yl}phenyl)methanol] were, in that order, 490 nM and 46 nM.
The like results for `CC(C)(C)OC(=O)N1CCC(n2cnc3c(N4CCOCC4)nc(-c4cccc(O)c4)nc32)CC1` [Compound 57, tert-butyl 4-{2-(3-hydroxyphenyl)-6-morpholino-9H-purin-9-yl}piperidine-1-carboxylate] were, in that order, 270 nM and 288 nM.
In the same order, the values of `COCOc1cncc(-c2nc(N3CCOCC3)c3ncn(C4CCN(C(=O)OC(C)(C)C)CC4)c3n2)c1` [Compound 58, tert-butyl-4-{2-[5-(methoxymethoxy)pyridin-3-yl]-6-morpholin-4-yl-9H-purin-9-yl}piperidine-1-carboxylate] are above 4000 nM and 2090 nM.
Take `CC(C)(C)OC(=O)N1CCC(n2cnc3c(N4CCOCC4)nc(-c4cccc(CO)c4)nc32)CC1` [Compound 59, tert-butyl 4-{2-[3-(hydroxymethyl)phenyl]-6-morpholin-4-yl-9H-purin-9-yl}piperidine-1-carboxylate]: the values for the IC50 on human TOR and on PI3 Kinase were 1400 nM and 95 nM, respectively.
In the same order, the values of `OCc1cccc(-c2nc(N3CCOCC3)c3ncn(C4CCN(Cc5c(F)cc(F)cc5F)CC4)c3n2)c1` [Compound 60, (3-{6-morpholin-4-yl-9-[1-(2,4,6-trifluorobenzyl)piperidin-4-yl]-9H-purin-2-yl}phenyl)methanol] are 3300 nM and 194 nM.
`OCc1cccc(-c2nc(N3CCOCC3)c3ncn(C4CCN(Cc5ccc(F)nc5)CC4)c3n2)c1` [Compound 61, [3-(9-{1-[(6-fluoropyridin-3-yl)methyl]piperidin-4-yl}-6-morpholin-4-yl-9H-purin-2-yl)phenyl]methanol]: the figures for the IC50 on human TOR and on PI3 Kinase were 710 nM and 47 nM, respectively.
In the same order, the values of `OCc1cccc(-c2nc(N3CCOCC3)c3ncn(C4CCN(Cc5ccc(F)c(F)c5)CC4)c3n2)c1` [Compound 62, (3-{9-[1-(3,4-difluorobenzyl)piperidin-4-yl]-6-morpholin-4-yl-9H-purin-2-yl}phenyl)methanol] are 1200 nM and 42 nM.
The like results for `OCc1cccc(-c2nc(N3CCOCC3)c3ncn(C4CCN(Cc5ccc(Cl)nc5)CC4)c3n2)c1` [Compound 63, [3-(9-{1-[(6-chloropyridin-3-yl)methyl]piperidin-4-yl}-6-morpholin-4-yl-9H-purin-2-yl)phenyl]methanol] were, in that order, 650 nM and 45 nM.
The like results for `COc1ccc(CN2CCC(n3cnc4c(N5CCOCC5)nc(-c5cccc(CO)c5)nc43)CC2)cn1` [Compound 64, [3-(9-{1-[(6-methoxypyridin-3-yl)methyl]piperidin-4-yl}-6-morpholin-4-yl-9H-purin-2-yl)phenyl]methanol] were, in that order, above 4000 nM and 168 nM.
Consider `OCc1cccc(-c2nc(N3CCOCC3)c3ncn(C4CCN(Cc5cncc(F)c5)CC4)c3n2)c1` [Compound 66, [3-(9-{1-[(5-fluoropyridin-3-yl)methyl]piperidin-4-yl}-6-morpholin-4-yl-9H-purin-2-yl)phenyl]methanol], for which the IC50 at human TOR was above 4000 nM; at PI3 Kinase it was 177 nM.
In the same order, the values of `Cc1ccc(CN2CCC(n3cnc4c(N5CCOCC5)nc(-c5cccc(CO)c5)nc43)CC2)s1` [Compound 67, [3-(9-{1-[(5-methyl-2-thienyl)methyl]piperidin-4-yl}-6-morpholin-4-yl-9H-purin-2-yl)phenyl]methanol] are above 4000 nM and 518 nM.
The like results for `OCc1cccc(-c2nc(N3CCOCC3)c3ncn(C4CCN(Cc5ccc[nH]5)CC4)c3n2)c1` [Compound 68, (3-{6-morpholin-4-yl-9-[1-(1H-pyrrol-2-ylmethyl)piperidin-4-yl]-9H-purin-2-yl}phenyl)methanol] were, in that order, 2500 nM and 37 nM.
In the case of `OCc1cccc(-c2nc(N3CCOCC3)c3ncn(C4CCN(Cc5ccc(F)cc5Cl)CC4)c3n2)c1` [Compound 69, (3-{9-[1-(2-chloro-4-fluorobenzyl)piperidin-4-yl]-6-morpholin-4-yl-9H-purin-2-yl}phenyl)methanol], the IC50 at human TOR was found to be 1550 nM; at PI3 Kinase, 77 nM.
In the same order, the values of `OCc1cccc(-c2nc(N3CCOCC3)c3ncn(C4CCN(Cc5ncc[nH]5)CC4)c3n2)c1` [Compound 70, (3-{9-[1-(1H-imidazol-2-ylmethyl)piperidin-4-yl]-6-morpholin-4-yl-9H-purin-2-yl}phenyl)methanol] are 1500 nM and 152 nM.
In the same order, the values of `OCc1cccc(-c2nc(N3CCOCC3)c3ncn(C4CCN(Cc5cccc(Br)n5)CC4)c3n2)c1` [Compound 71, [3-(9-{1-[(6-bromopyridin-2-yl)methyl]piperidin-4-yl}-6-morpholin-4-yl-9H-purin-2-yl)phenyl]methanol] are 580 nM and 50 nM.

For orientation: IC50 means the concentration that gives 50% inhibition.

Values taken from patent US20080233127A1, “IMIDAZOLOPYRIMIDINE ANALOGS AND THEIR USE AS PI3 KINASE AND MTOR INHIBITORS” (Wyeth, priority 2007, published 2008).
